Like-named read-outs stand apart in the source and are kept apart here.
Assays:
[1] = target: T1, P2X7 receptor (Homo sapiens, UniProt Q99572); assay: bbATP-induced ethidium bromide uptake in THP-1 cells (P2X7 antagonist activity); type: cell-based
T1 construct: 200 μl of a suspension of THP-1 cells (2.5×10^6 cells/ml) containing 10^−4M ethidium bromide; endogenous in cells; host or cells: THP-1 cells
T1 sequence (Q99572 1-595): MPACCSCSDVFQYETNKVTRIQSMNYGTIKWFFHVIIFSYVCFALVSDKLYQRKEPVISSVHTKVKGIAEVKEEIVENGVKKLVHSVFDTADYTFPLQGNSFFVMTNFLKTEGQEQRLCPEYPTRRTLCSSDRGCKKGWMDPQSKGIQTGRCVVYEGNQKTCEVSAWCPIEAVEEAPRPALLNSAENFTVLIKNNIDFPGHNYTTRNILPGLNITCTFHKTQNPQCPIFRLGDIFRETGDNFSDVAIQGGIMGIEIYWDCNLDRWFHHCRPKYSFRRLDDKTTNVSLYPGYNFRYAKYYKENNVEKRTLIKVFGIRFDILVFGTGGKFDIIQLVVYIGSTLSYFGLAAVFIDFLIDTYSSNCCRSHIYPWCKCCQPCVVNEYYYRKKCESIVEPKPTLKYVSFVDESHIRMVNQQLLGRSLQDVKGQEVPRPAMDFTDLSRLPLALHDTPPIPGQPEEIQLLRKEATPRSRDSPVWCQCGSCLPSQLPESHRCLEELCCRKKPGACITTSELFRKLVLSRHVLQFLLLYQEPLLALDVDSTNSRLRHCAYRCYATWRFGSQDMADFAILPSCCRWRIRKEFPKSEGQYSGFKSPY
Description: Certain compounds such as benzoylbenzoyl adenosine triphosphate (bbATP) are known to be agonists of the P2X7 receptor, effecting the formation of pores in the plasma membrane (Drug Development Research (1996), 37(3), p. 126). Consequently, when the receptor is activated using bbATP in the presence of ethidium bromide (a fluorescent DNA probe), an increase in the fluorescence of intracellular DNA-bound ethidium bromide is observed. The increase in fluorescence can be used as a measure of P2X7 receptor activation and therefore to quantify the effect of a compound on the P2X7 receptor.
In this manner, each of the title compounds of the Examples was tested for antagonist activity at the P2X7 receptor. […] The plate was covered with a plastics sheet and incubated at 37° C. for one hour. The plate was then read in a Perkin-Elmer fluorescent plate reader, excitation 520 nm, emission 595 nm, slit widths: Ex 15 nm, Em 20 nm. For the purposes of comparison, bbATP (a P2X7 receptor agonist) and pyridoxal 5-phosphate (a P2X7 receptor antagonist) were used separately in the test as controls.

Work on `O=C(CC12CC3CC(CC(C3)C1)C2)Nc1c(Cl)ccc2nc(N3CCC(C(=O)O)CC3)ccc12` [Example 1, 1-[6-Chloro-5-[(tricyclo[3.3.1.1^3,7]dec-1-ylacetyl)amino]-2-quinolinyl]-4-piperidinecarboxylic acid] yielded a melting point of 240 to 241 °C.
`O=C(NCC12CC3CC(CC(C3)C1)C2)c1c(Cl)ccc2nc(N3CCC[C@@H]3C(=O)O)ccc12` [Example 2, 1-[6-Chloro-5-[[(tricyclo[3.3.1.1^3,7]dec-1-ylmethyl)amino]carbonyl]-2-quinolinyl]-D-proline] gave a melting point of 157 to 160 °C.
In the case of `O=C(NCC12CC3CC(CC(C3)C1)C2)c1c(Cl)ccc2nc(N3CCC[C@@H](C(=O)O)C3)ccc12` [Example 3, 1-[6-Chloro-5-[[(tricyclo[3.3.1.1^3,7]dec-1-ylmethyl)amino]carbonyl]-2-quinolinyl]-(3R)-3-piperidinecarboxylic acid], the melting point is reported as 257 to 262 °C and the IC50 [1] is reported as 79.4 nM.
Compound `O=C(NCC12CC3CC(CC(C3)C1)C2)c1c(Cl)ccc2nc(N3CCC(n4cn[nH]c4=O)CC3)ccc12` [Example 4, 6-Chloro-2-[4-(1,5-dihydro-5-oxo-4H-1,2,4-triazol-4-yl)-1-piperidinyl]-N-(tricyclo[3.3.1.1^3,7]dec-1-ylmethyl)-5-quinolinecarboxamide] has a melting point of 294 to 295 °C.
Work on `O=C(O)CN1CCN(c2ccc3c(C(=O)NCC45CC6CC(CC(C6)C4)C5)c(Cl)ccc3n2)CC1` [Example 5, 4-[6-Chloro-5-[[(tricyclo[3.3.1.1^3,7]dec-1-ylmethyl)amino]carbonyl]-2-quinolinyl]-1-piperazineacetic acid] yielded a melting point of 179 to 183 °C.
In the case of `O=C(NCC12CC3CC(CC(C3)C1)C2)c1c(Cl)ccc2nc(N3CC[C@H](NCCc4nnn[nH]4)C3)ccc12` [Example 6, 6-Chloro-2-[(3S)-3-[[2-(2H-tetrazol-5-yl)ethyl]amino]-1-pyrrolidinyl]-N-(tricyclo[3.3.1.1^3,7]dec-1-ylmethyl)-5-quinolinecarboxamide], the melting point is reported as 174 to 177 °C.
For `O=C(NCC12CC3CC(CC(C3)C1)C2)c1c(Cl)ccc2nc(N3CCC(C(=O)O)CC3)ccc12` [Example 7, 1-[6-Chloro-5-[[(tricyclo[3.3.1.1^3,7]dec-1-ylmethyl)amino]carbonyl]-2-quinolinyl]-4-piperidinecarboxylic acid], the melting point was 231 to 235 °C.
In the case of `O=C(O)CC1CCN(c2ccc3c(C(=O)NCC45CC6CC(CC(C6)C4)C5)c(Cl)ccc3n2)CC1` [Example 8, 1-[6-Chloro-5-[[(tricyclo[3.3.1.1^3,7]dec-1-ylmethyl)amino]carbonyl]-2-quinolinyl]-4-piperidineacetic acid], the melting point is reported as 212 to 214 °C.
Work on `O=C(NCC12CC3CC(CC(C3)C1)C2)c1c(Cl)ccc2nc(CCCCc3nnn[nH]3)ccc12` [Example 9, 6-Chloro-2-[4-(2H-tetrazol-5-yl)butyl]-N-(tricyclo[3.3.1.1^3,7]dec-1-ylmethyl)-5-quinolinecarboxamide] yielded a melting point of 221 °C.
Work on `O=C(O)CCN[C@H]1CCCN(c2ccc3c(C(=O)NCC45CC6CC(CC(C6)C4)C5)c(Cl)ccc3n2)C1` [Example 12, N-[(3S)-1-[6-Chloro-5-[[(tricyclo[3.3.1.1^3,7]dec-1-ylmethyl)amino]carbonyl]-2-quinolinyl]-3-piperidinyl]-β-alanine] yielded a melting point of 176 to 189 °C and an IC50 [1] of 15.8 nM.
With `O=C(NCC12CC3CC(CC(C3)C1)C2)c1c(Cl)ccc2nc(N3CCC(O)(C(=O)O)CC3)ccc12` [Example 17, 1-[6-Chloro-5-[[(tricyclo[3.3.1.1^3,7]dec-1-ylmethyl)amino]carbonyl]-2-quinolinyl]-4-hydroxy-4-piperidinecarboxylic acid] the melting point was 200 to 204 °C.
For `O=C(NCC12CC3CC(CC(C3)C1)C2)c1c(Cl)ccc2nc(N3CCC(C(=O)O)(c4ccccc4)CC3)ccc12` [Example 18, 1-[6-Chloro-5-[[(tricyclo[3.3.1.1^3,7]dec-1-ylmethyl)amino]carbonyl]-2-quinolinyl]-4-phenyl-4-piperidinecarboxylic acid], the melting point was 235 to 237 °C.
In the case of `O=C(NCC12CC3CC(CC(C3)C1)C2)c1c(Cl)ccc2nc(N3C[C@@H]4[C@H](C3)[C@H]4C(=O)O)ccc12` [Example 19, (1R,5S)-3-[6-Chloro-5-[[(tricyclo[3.3.1.1^3,7]dec-1-ylmethyl)amino]carbonyl]-2-quinolinyl]-3-azabicyclo[3.1.0]hexane-6-carboxylic acid], the melting point is reported as 175 to 180 °C.
For `CS(=O)(=O)NC(=O)C1CCN(c2ccc3c(C(=O)NCC45CC6CC(CC(C6)C4)C5)c(Cl)ccc3n2)CC1` [Example 20, 6-Chloro-2-[4-[[(methylsulfonyl)amino]carbonyl]-1-piperidinyl]-N-(tricyclo[3.3.1.1^3,7]dec-1-ylmethyl)-5-quinolinecarboxamide], the melting point was 170 to 173 °C.
`O=C(NCC12CC3CC(CC(C3)C1)C2)c1c(Cl)ccc2nc(N3CCC(C(=O)NO)CC3)ccc12` [Example 21, 6-chloro-2-[4-[(hydroxyamino)carbonyl]-1-piperidinyl]-N-(tricyclo[3.3.1.1^3,7]dec-1-ylmethyl)-5-quinolinecarboxamide] showed a melting point of 189 to 196 °C.
`O=C(O)c1ccccc1-c1ccc2c(C(=O)NCC34CC5CC(CC(C5)C3)C4)c(Cl)ccc2n1` [Example 23, 2-[6-Chloro-5-[[(tricyclo[3.3.1.1^3,7]dec-1-ylmethyl)amino]carbonyl]-2-quinolinyl]-benzoic acid] gave a melting point of 156 to 158 °C.
With `O=C(O)c1cccc(-c2ccc3c(C(=O)NCC45CC6CC(CC(C6)C4)C5)c(Cl)ccc3n2)c1` [Example 24, 3-[6-Chloro-5-[[(tricyclo[3.3.1.1^3,7]dec-1-ylmethyl)amino]carbonyl]-2-quinolinyl]-benzoic acid] the IC50 ([1]; THP-1 cells, 10^-5M bbATP agonist, ethidium bromide fluorescence, 37° C. for one hour, negative logarithm of concentration reducing bbATP agonist activity by 50%, read-out: pIC50 (converted)) was 63.1 nM.
Work on `O=C(O)c1ccc(-c2ccc3c(C(=O)NCC45CC6CC(CC(C6)C4)C5)c(Cl)ccc3n2)cc1` [Example 25, 4-[6-Chloro-5-[[(tricyclo[3.3.1.1^3,7]dec-1-ylmethyl)amino]carbonyl]-2-quinolinyl]-benzoic acid] yielded a melting point of 316 to 317 °C.
For `O=C(O)CCNc1ccc2c(C(=O)NCC34CC5CC(CC(C5)C3)C4)c(Cl)ccc2n1` [Example 27, N-[6-Chloro-5-[[(tricyclo[3.3.1.1^3,7]dec-1-ylmethyl)amino]carbonyl]-2-quinolinyl]-β-alanine], the melting point was 251 to 252 °C.
With `O=C(O)c1cncc(-c2ccc3c(C(=O)NCC45CC6CC(CC(C6)C4)C5)c(Cl)ccc3n2)c1` [Example 28, 5-[6-Chloro-5-[[(tricyclo[3.3.1.1^3,7]dec-1-ylmethyl)amino]carbonyl]-2-quinolinyl]-3-pyridinecarboxylic acid] the melting point was 247 °C.
